Target: T1, hFASN enzyme (full length) (Homo sapiens, UniProt P49327)
T1 construct: 10 μL hFASN enzyme (full length, 300 ng, purified in house); made in house
Experiment: Fatty Acid Synthase (FASN) inhibition scintillation proximity assay
Assay type: biochemical
Conditions: for inhibition at 10 µM: read-out: Human FASN % inhibition @ 10 μM, 10 μM test compound; for IC50: read-out: Human FASN pIC50 (converted)
Procedure, shortened: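 Compounds at 0.01–30 μM were mixed with 300 ng purified full-length enzyme in 100 mM KH2PO4 pH 7.5, 1 mM DTT. Substrates ³H-acetyl-CoA and malonyl-CoA were then converted, and bead addition stopped the reaction. Signal was normalised to low and high plate controls and fitted by 4-parameter nonlinear regression.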

T1 sequence (P49327 whole entry): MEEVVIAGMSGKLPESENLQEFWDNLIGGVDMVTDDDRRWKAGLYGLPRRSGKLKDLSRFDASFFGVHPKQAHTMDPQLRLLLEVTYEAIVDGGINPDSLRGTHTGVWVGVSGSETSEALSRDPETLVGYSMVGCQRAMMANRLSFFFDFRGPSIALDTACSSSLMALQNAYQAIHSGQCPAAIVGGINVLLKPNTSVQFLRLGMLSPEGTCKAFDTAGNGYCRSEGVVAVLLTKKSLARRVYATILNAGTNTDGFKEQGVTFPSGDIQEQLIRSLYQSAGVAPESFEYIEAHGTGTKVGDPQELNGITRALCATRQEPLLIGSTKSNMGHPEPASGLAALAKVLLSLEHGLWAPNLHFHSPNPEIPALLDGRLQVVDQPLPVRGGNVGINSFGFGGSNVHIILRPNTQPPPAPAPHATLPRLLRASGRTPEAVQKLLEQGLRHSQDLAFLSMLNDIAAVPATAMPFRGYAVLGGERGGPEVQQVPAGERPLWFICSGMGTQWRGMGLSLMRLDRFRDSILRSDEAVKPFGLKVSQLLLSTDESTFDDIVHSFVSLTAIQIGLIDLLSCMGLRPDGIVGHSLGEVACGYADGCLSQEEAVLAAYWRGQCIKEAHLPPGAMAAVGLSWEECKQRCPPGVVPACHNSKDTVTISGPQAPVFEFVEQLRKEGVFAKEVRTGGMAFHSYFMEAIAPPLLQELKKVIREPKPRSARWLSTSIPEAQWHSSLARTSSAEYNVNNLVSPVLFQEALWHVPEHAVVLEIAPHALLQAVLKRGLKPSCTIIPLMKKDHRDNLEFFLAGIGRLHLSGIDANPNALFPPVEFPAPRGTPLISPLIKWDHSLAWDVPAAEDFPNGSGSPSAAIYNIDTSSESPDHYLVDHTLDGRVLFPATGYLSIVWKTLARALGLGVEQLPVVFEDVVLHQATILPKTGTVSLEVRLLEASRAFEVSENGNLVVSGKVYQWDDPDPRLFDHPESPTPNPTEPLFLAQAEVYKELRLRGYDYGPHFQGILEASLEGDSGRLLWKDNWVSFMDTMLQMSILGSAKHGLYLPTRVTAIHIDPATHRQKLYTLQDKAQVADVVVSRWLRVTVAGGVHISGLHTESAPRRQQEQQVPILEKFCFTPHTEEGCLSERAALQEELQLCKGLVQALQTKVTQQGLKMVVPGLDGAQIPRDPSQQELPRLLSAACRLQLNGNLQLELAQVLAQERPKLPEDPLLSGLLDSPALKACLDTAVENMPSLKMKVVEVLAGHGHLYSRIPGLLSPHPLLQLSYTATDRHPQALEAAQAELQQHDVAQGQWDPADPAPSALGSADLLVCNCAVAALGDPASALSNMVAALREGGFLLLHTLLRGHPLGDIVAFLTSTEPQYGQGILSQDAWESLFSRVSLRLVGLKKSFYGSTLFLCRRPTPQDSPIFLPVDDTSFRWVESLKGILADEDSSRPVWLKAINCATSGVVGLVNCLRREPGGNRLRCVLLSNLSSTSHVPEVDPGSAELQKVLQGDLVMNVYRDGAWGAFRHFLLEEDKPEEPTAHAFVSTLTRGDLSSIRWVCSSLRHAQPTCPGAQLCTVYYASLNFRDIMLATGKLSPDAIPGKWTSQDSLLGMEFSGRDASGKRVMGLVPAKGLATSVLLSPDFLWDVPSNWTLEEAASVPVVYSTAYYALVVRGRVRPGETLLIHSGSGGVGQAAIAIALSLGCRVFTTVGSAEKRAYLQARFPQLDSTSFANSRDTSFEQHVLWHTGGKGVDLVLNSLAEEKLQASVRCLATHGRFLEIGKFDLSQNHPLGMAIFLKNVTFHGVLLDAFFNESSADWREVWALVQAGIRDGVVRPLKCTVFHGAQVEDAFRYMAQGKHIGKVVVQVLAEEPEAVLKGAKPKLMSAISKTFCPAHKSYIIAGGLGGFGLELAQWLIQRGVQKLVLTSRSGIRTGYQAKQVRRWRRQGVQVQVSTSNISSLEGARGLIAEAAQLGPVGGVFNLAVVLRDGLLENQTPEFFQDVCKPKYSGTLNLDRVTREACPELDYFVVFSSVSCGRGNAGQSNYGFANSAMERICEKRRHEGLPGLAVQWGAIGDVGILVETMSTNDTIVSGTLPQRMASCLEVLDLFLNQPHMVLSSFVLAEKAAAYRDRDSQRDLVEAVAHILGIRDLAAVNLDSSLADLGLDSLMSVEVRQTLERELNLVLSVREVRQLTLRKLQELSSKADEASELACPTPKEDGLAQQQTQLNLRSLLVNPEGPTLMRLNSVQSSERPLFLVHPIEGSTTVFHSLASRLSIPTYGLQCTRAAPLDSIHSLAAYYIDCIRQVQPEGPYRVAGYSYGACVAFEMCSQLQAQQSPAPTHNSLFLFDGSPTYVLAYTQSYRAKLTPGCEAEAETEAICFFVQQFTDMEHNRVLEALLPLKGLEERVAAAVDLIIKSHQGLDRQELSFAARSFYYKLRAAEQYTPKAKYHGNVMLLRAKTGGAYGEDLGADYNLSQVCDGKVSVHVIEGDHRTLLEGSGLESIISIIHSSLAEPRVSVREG

Structure (SMILES)	inhibition at 10 µM [%]	IC50 [µM]
CC(O)C(=O)N1CC[C@@H](CN2C(=O)C3(CCOCC3)N=C2c2ccc(-c3ccc4c(cnn4C)c3)cc2)C1 (stereo partly drawn) [compound 673, 3-{[(3R)-1-(2-Hycdroxypropanoyl)pyrrolidin-3-yl]methyl}-2-[4-(1-methyl-1H-indazol-5-yl)phenyl]-8-oxa-1,3-diazaspiro[4.5]dec-1-en-4-one]	61	5.5
COC(=O)N1CC2(C1)N=C(c1ccc(-c3ccc4c(cnn4C)c3)cc1)N(C[C@@H]1CCN(C(=O)C(C)O)C1)C2=O (stereo partly drawn) [compound 738, Methyl 7-{[(3R)-1-(2-hydroxypropanoyl)pyrrolidin-3-yl]methyl}-6-[4-(1-methyl-1H-indazol-5-yl)phenyl]-8-oxo-2,5,7-triazaspiro[3.4]oct-5-ene-2-carboxylate]	80	1.91
O=C(C1CC1)N1CC[C@@H](CN2C(=O)C3(CC3)N=C2c2ncc(-c3ccc4occc4c3)cn2)C1 [compound 437, 5-[5-(1-Benzofuran-5-yl)pyrimidin-2-yl]-6-{[(3R)-1-(cyclopropylcarbonyl)pyrrolidin-3-yl]methyl}-4,6-diazaspiro[2.4]hept-4-en-7-one]	72	2.75
Cn1cc(-c2ccc(-c3ccc(C4=NC5(CCN(C(=O)C6CC6)CC5)C(=O)N4CC4CN(C(=O)C5CC5)C4)cc3)cc2)cn1 [compound 770, 8-(Cyclopropylcarbonyl)-3-{[1-(cyclopropylcarbonyl)azetidin-3-yl]methyl}-2-[4′-(1-methyl-1H-pyrazol-4-yl)biphenyl-4-yl]-1,3,8-triazaspiro[4.5]dec-1-en-4-one]	77	2.19
COC(=O)N1CC2(C1)N=C(c1ccc(-c3ccc(-c4cnn(C)c4)cc3)cc1)N(C[C@@H]1CCN(C(=O)c3nccs3)C1)C2=O [compound 929, (R)-methyl 6-(4′-(1-methyl-1H-pyrazol-4-yl)-[1,1′-biphenyl]-4-yl)-8-oxo-7-((1-(thiazole-2-carbonyl)pyrrolidin-3-yl)methyl)-2,5,7-triazaspiro[3.4]oct-5-ene-2-carboxylate]	6	> 10
CS(=O)(=O)N1CC[C@@H](CN2C(=O)C3(CCOCC3)N=C2c2ccc(-c3ccc4occc4c3)cc2)C1 [compound 913, (S)-2-(4-(benzofuran-5-yl)phenyl)-3-((1-(methylsulfonyl)pyrrolidin-3-yl)methyl)-8-oxa-1,3-diazaspiro[4.5]dec-1-en-4-one]	0.4	> 10
COC(=O)N1CC[C@@H](CN2C(=O)C3(CCOC3)N=C2c2ccc(-c3ccc4c(cnn4C)c3)cc2)C1 (stereo partly drawn) [compound 915, (3S)-methyl 3-((2-(4-(1-methyl-1H-indazol-5-yl)phenyl)-4-oxo-7-oxa-1,3-diazaspiro[4.4]non-1-en-3-yl)methyl)pyrrolidin-1-carboxylate]	11	> 10
CN(C)CC(=O)N1CCC2(CC1)N=C(c1ccc(-c3ccc4occc4c3)cc1)N(C[C@@H]1CCN(C(=O)C3CC3)C1)C2=O [compound 153, 2-[4-(1-Benzofuran-5-yl)phenyl]-3-{[(3R)-1-(cyclopropylcarbonyl)pyrrolidin-3-yl]methyl}-8-(N,N-dimethylglycyl)-1,3,8-triazaspiro[4.5]dec-1-en-4-one]	116	0.105
Cc1cc(C2=NC3(CC3)C(=O)N2CC2CN(C(=O)C3CC3)C2)ccc1-c1ccc2[nH]ncc2c1 [compound 448, 6-{[1-(Cyclopropylcarbonyl)azetidin-3-yl]methyl}-5-[4-(1H-indazol-5-yl)-3-methylphenyl]-4,6-diazaspiro[2.4]hept-4-en-7-one]	50	8.51
COC(=O)N1CC(CN2C(=O)C3(CCOC3)N=C2c2ccc(-c3ccc4occc4c3)cc2)C1 (centres unmarked) [compound 904, methyl 3-((2-(4-(benzofuran-5-yl)phenyl)-4-oxo-7-oxa-1,3-diazaspiro[4.4]non-1-en-3-yl)methyl)azetidin-1-carboxylate]	-24	> 10
COC(=O)N1CC2(C1)N=C(c1ccc(-c3ccc(-c4cnn(C)c4)cc3)cc1)N(C[C@@H]1CCN(C(=O)C(C)O)C1)C2=O (stereo partly drawn) [compound 726, Methyl 7-{[(3R)-1-(2-hydroxypropanoyl)pyrrolidin-3-yl]methyl}-6-[4′-(1-methyl-1H-pyrazol-4-yl)biphenyl-4-yl]-8-oxo-2,5,7-triazaspiro[3.4]oct-5-ene-2-carboxylate]	73	1.95
COc1cc(-c2ccc3[nH]ccc3c2)ccc1C1=NC2(CCCC2)C(=O)N1C[C@@H]1CCN(C(=O)C2CC2)C1 [compound 157, 3-{[(3R)-1-(Cyclopropylcarbonyl)pyrrolidin-3-yl]methyl}-2-[4-(1H-indol-5-yl)-2-methoxyphenyl]-1,3-diazaspiro[4.4]non-1-en-4-one]	112	0.0676
CS(=O)(=O)N1CCC2(CC1)N=C(c1ccc(-c3ccc4occc4c3)cc1)N(CC1CN(C(=O)C3CC3)C1)C2=O [compound 760, 2-[4-(1-Benzofuran-5-yl)phenyl]-3-{[1-(cyclopropylcarbonyl)azetidin-3-yl]methyl}-8-(methylsulfonyl)-1,3,8-triazaspiro[4.5]dec-1-en-4-one]	62	4.79
N#Cc1cc2cc(-c3ccc(C4=NC5(CC5)C(=O)N4CC4CN(C(=O)C5CC5)C4)cc3F)ccc2o1 [compound 477, 5-[4-(6-{[1-(Cyclopropylcarbonyl)azetidin-3-yl]methyl}-7-oxo-4,6-diazaspiro[2.4]hept-4-en-5-yl)-2-fluorophenyl]-1-benzofu8ran-2-carbonitrile]	67	3.09

Second part, the molecule after the results:

inhibition at 10 µM [%]	IC50 [µM]	Structure (SMILES)
7	> 10	O=C(N1CC(CN2C(=O)C3(CCOCC3)N=C2c2ccc(-c3ccc4occc4c3)cc2)C1)C(F)(F)F [compound 961, 2-(4-(benzofuran-5-yl)phenyl)-3-((1-(2,2,2-trifluoroacetyl)azetidin-3-yl)methyl)-8-oxa-1,3-diazaspiro[4.5]dec-1-en-4-one]
38	~8.32	Cn1cc(-c2ccc(-c3ccc(C4=NC5(CCOCC5)C(=O)N4C[C@@H]4CCN(C(=O)C(F)(F)F)C4)cc3)cc2)cn1 [compound 659, 2-[4′-(1-Methyl-1H-pyrazol-4-yl)biphenyl-4-yl]-3-{[(3R)-1-(trifluoroacetyl)pyrrolidin-3-yl]methyl}-8-oxa-1,3-diazaspiro[4.5]dec-1-en-4-one]
56	7.41	Cn1nccc1-c1ccc(-c2ccc(C3=NC4(CC4)C(=O)N3CC3CN(C(=O)C4CC4)C3)cc2)cc1 [compound 514, 6-{[1-(Cyclopropylcarbonyl)azetidin-3-yl]methyl}-5-[4′-(1-methyl-1H-pyrazol-5-yl)biphenyl-4-yl]-4,6-diazaspiro[2.4]hept-4-en-7-one]
31	> 10	Cn1cc(-c2ccc(-c3ccc(C4=NC5(CC5)C(=O)N4C[C@@H]4CCCN(C(=O)C5CC5)C4)cc3)cc2)cn1 [compound 823, (R)-6-((1-(cyclopropanecarbonyl)piperidin-3-yl)methyl)-5-(4′-(1-methyl-1H-pyrazol-4-yl)-[1,1′-biphenyl]-4-yl)-4,6-diazaspiro[2.4]hept-4-en-7-one]
10.6	> 10	O=C(C1CC1)N1CCC(CN2C(=O)C3(CC3)N=C2c2ccc(-c3ccc(C(F)(F)F)cc3)cc2)CC1 [compound 107, 6-{[1-(Cyclopropylcarbonyl)piperidin-4-yl]methyl}-5-[4′-(trifluoromethyl)biphenyl-4-yl]-4,6-diazaspiro[2.4]hept-4-en-7-one]
64.8	3.47	O=C(C1CC1)N1CC(CN2C(=O)C3(CC3)N=C2c2ccc(-c3ccc(O)cc3)cc2)C1 [compound 50, 6-{[1-(Cyclopropylcarbonyl)azetidin-3-yl]methyl}-5-(4′-hydroxybiphenyl-4-yl)-4,6-diazaspiro[2.4]hept-4-en-7-one]
64.6	3.98	O=C(C1CC1)N1CC[C@@H](CN2C(=O)C3(CC3)N=C2c2ccc(-c3ccc(OC(F)(F)F)cc3)cc2)C1 [compound 125, 6-{[(3R)-1-(Cyclopropylcarbonyl)pyrrolidin-3-yl]methyl}-5-[4′-(trifluoromethoxy)biphenyl-4-yl]-4,6-diazaspiro[2.4]hept-4-en-7-one]
44	> 10	Nc1cncc(-c2ccc(C3=NC4(CC4)C(=O)N3C[C@@H]3CCN(C(=O)C4CC4)C3)cc2)c1 [compound 867, (R)-5-(4-(5-aminopyridi9n-3-yl)phenyl)-6-((1-(cyclopropanecarbonyl)pyrrolidin-3-yl)methyl)-4,6-diazaspiro[2.4]hept-4-en-7-one]
56	~7.59	O=C(N1CC[C@@H](CN2C(=O)C3(CCOCC3)N=C2c2ccc(-c3ccc4occc4c3)cc2)C1)C(F)(F)F [compound 670, 2-[4-(1-Benzofuran-5-yl)phenyl]-3-{[(3R)-1-(trifluoroacetyl)pyrrolidin-3-yl]methyl}-8-oxa-1,3-diazaspiro[4.5]dec-1-en-4-one]
34	> 10	Cn1ncc2cc(-c3ccc(C4=NC5(CCOC5)C(=O)N4C[C@@H]4CCN(C(=O)C(F)(F)F)C4)cc3)ccc21 (stereo partly drawn) [compound 955, 2-(4-(1-methyl-1H-indazol-5-yl)phenyl)-3-(((R)-1-(2,2,2-trifluoroacetyl)pyrrolidin-3-yl)methyl)-7-oxa-1,3-diazaspiro[4.4]non-1-en-4-one]
61	3.39	CCn1cc2cc(-c3ccc(C4=NC5(CC5)C(=O)N4CC4CN(C(=O)C5CC5)C4)cc3)ccc2n1 [compound 506, 6-{[1-(Cyclopropylcarbonyl)azetidin-3-yl]methyl}-5-[4-(2-ethyl-2H-indazol-5-yl)phenyl]-4,6-diazaspiro[2.4]hept-4-en-7-one]
